Patent US5710130A, “Antithrombotic agents” (Eli Lilly and Company, priority 1995, dated 1998)
Counter-ions that a name gives are not always drawn.

Legend:
[1] = system: human plasma; test: Human plasma anticoagulation, thrombin time (TT); assay type: biochemical; details: concentration required to double thrombin time, linear extrapolation
Procedure: (§1) Dog plasma and rat plasma is obtained from conscious mixed-breed hounds (either sex, Hazelton-LRE, Kalamazoo, Mich., U.S.A.) or from anesthetized male Sprague-Dawley rats (Harlan Sprague-Dawley, Inc., Indianapolis, Ind., U.S.A.) by venipuncture into 3.8 percent citrate. Fibrinogen is prepared from in-date ACD human blood as the fraction I-2 according to previous procedures and specifications. […] Human fibrinogen is also purchased as 98 percent pure/plasmin free from American Diagnostica, Greenwich, Conn. Coagulation reagents ACTIN, Thromboplastin, and Human plasma are from Baxter Healthcare Corp., Dade Division, Miami, Fla. Bovine thrombin from Parke-Davis ([…], Mich.) is used for coagulation assays in plasma.
(§2) Coagulation assay procedures are as previously described. […] A CoAScreener coagulation instrument (American LABor, Inc.) is used for all coagulation assay measurements. The prothrombin time (PT) is measured by adding 0.05 mL saline and 0.05 mL Thromboplastin-C reagent to 0.05 mL test plasma. The activated partial thromboplastin time (APTT) is measured by incubation of 0.05 mL test plasma with 0.05 mL Actin reagent for 120 seconds followed by 0.05 mL CaCl2 (0.02M). The thrombin time (TT) is measured by adding 0.05 mL saline and 0.05 mL thrombin (10 NIH units/mL) to 0.05 mL test plasma. The compounds of Formula I are added to human or animal plasma over a wide range of concentrations to determine prolongation effects on the APTT, PT, and TT assays. Linear extrapolations are performed to estimate the concentrations required to double the clotting time for each assay.

[2] = Index of bioavailability (% Relative Activity) from plasma TT time course, oral vs i.v.; assay type: in vivo; details: p.o. dose per legend (20, 60 or 50 mg/kg)
Procedure: Parke Davis) at 37° C. […] Assays are done in duplicate and averaged. […] Each sample population represented alternating sequential time points.

[3] = target: Human Thrombin (Homo sapiens, UniProt P00734); test: Inhibition of thrombin amidase activity (Kass), chromogenic substrate; assay type: biochemical; details: mean Kass over a range of concentrations; substrate N-benzoyl-Phe-Val-Arg-p-nitroanilide
[4] = system: human plasma; test: Human plasma anticoagulation, activated partial thromboplastin time (APTT); assay type: biochemical; details: concentration required to double APTT, linear extrapolation
Procedure: as §1, §2

[5] = system: human plasma; test: Human plasma anticoagulation, prothrombin time (PT); assay type: biochemical; details: concentration required to double PT, linear extrapolation
Procedure: as §1, §2

% oral/i.v. activity (Rat), screening not completed [2] | Kass Human Thrombin [3] | Compound | Human Plasma Anticoagulation 2x Clotting time TT [1] | Human Plasma Anticoagulation 2x Clotting time APTT [4] | Human Plasma Anticoagulation 2x Clotting time PT [5]
NC^1 | – | N=C(N)c1cc(F)c(CNC(=O)[C@@H]2CCCN2C(=O)[C@@H](CC2CCCCC2)NCC(=O)O)c(F)c1 [Example 72, N-(carboxymethyl)-D-cyclohexylalanyl-N-[[4-(aminoiminomethyl-2,6-difluorophenyl]methyl]-L-prolinamide hydrochloride] | 1 ng/mL | 160 ng/mL | 160 ng/mL
– | 2.9 × 10^6 (L/mole) | CCS(=O)(=O)N[C@H](CC1CCCCC1)C(=O)N1CCC[C@H]1C(=O)NCc1ccc(N)nc1.Cl [Example 84, EtSO2 -D-Cha-Pro-5-NHCH2 -2-aminopyridine.HCl] | 110 ng/mL | 1,500 ng/mL | 1,900 ng/mL
NC^1 | – | N=C(N)c1ccc(CNC(=O)[C@@H]2CCCN2C(=O)[C@@H](CC2CCCCC2)NCC(=O)O)c(F)c1 [Example 71, N-(carboxymethyl)-D-cyclohexylalanyl-N-[[4-(aminoiminomethyl)-2-fluorophenyl]methyl]-L-prolinamide hydrochloride] | 1 ng/mL | 89 ng/mL | 150 ng/mL
– | 11 × 10^6 (L/mole) | NCc1ccc(CNC(=O)[C@@H]2CCCN2C(=O)[C@@H](CC2CCCCC2)NCC(=O)O)cc1 [Example 78, HO2 CCH2 -D-Cha-Pro-4-NHCH2 C6 H4 CH2 NH2.HCl] | 46 ng/mL | 430 ng/mL | 760 ng/mL
– | 28 × 10^6 (L/mole) | Cl.Nc1cc(CNC(=O)[C@@H]2CCCN2C(=O)[C@@H](CC2CCCCC2)NCC(=O)O)ccn1 [Example 73, HO2 CCH2 -D-Cha-Pro-4-NHCH2 -2-aminopyridine.HCl] | 21 ng/mL | 340 ng/mL | 330 ng/mL
– | 2.4 × 10^6 (L/mole) | CCS(=O)(=O)N[C@H](CC1CCCCC1)C(=O)N1CCC[C@H]1C(=O)NCc1ccnc(N)c1.Cl [Example 83, EtSO2 -D-Cha-Pro-4-NHCH2 -2-aminopyridine.HCl] | 91 ng/mL | 1,000 ng/mL | 1,300 ng/mL
– | 29 × 10^6 (L/mole) | Cl.Nc1ccc(CNC(=O)[C@@H]2CCCN2C(=O)[C@@H](CC2CCCCC2)NCC(=O)O)cn1 [Example 74, HO2 CCH2 -D-Cha-Pro-5-NHCH2 -2-aminopyridine.HCl] | 20 ng/mL | 420 ng/mL | 350 ng/mL
– | 11 × 10^6 (L/mole) | N=C(N)C1CCC(CNC(=O)[C@@H]2CCCN2C(=O)[C@@H](CC2CCCCC2)NCC(=O)O)NC1 (stereo partly drawn) [Example 67, HO2 CCH2 -D-Cha-Pro-2-NHCH2 -5-amidinopiperidine.HCl] | 34 ng/mL | 1,800 ng/mL | 1,300 ng/mL

More lines, now with the values behind:

Compound | % oral/i.v. activity (Rat), screening not completed [2] | Kass Human Thrombin [3] | Human Plasma Anticoagulation 2x Clotting time TT [1] | Human Plasma Anticoagulation 2x Clotting time APTT [4] | Human Plasma Anticoagulation 2x Clotting time PT [5]
N=C(N)c1ccc(CNC(=O)[C@@H]2C[C@@H]3CCCC[C@@H]3N2C(=O)[C@@H](CC2CCCCC2)NCC(=O)O)cc1 (relative stereo) [Example 49, (S-cis)-N-[[4-(aminoiminomethyl)phenyl]methyl]-1-[N-(carboxymethyl)-D-cyclohexylalanyl-1H-indole-2-carboxamide hydrochloride] | NC^2 | – | 5 ng/mL | – | –
N=C(N)c1ccc(CNC(=O)[C@@H]2C[C@@H]3CCCC[C@@H]3N2C(=O)[C@@H](Cc2ccccc2)NCC(=O)O)cc1 (relative stereo) [Example 47, HOOCCH2 -D-Phe-cis-Ohi-p-NHCH2 C6 H4 C(NH)NH2.HCl] | NC^2 | 45 × 10^6 (L/mole) | 12 ng/mL | 140 ng/mL | 270 ng/mL
Cl.O=C(O)CNC(CC1CCCCC1)C(=O)N1CCCC1C(=O)NCCC1CCNCC1 [Example 54, HO2 CCH2 -D-Cha-Pro-4-NHCH2 CH2 -piperidine.HCl] | – | 2.8 × 10^6 (L/mole) | 140 ng/mL | 3,300 ng/mL | 2,200 ng/mL
Cl.Nc1ccc(CNC(=O)[C@@H]2CCCN2C(=O)[C@@H](CC2CCCCC2)NCC(=O)O)c(F)c1 [Example 64, HO2 CCH2 -D-Cha-Pro-4-NHCH2 -3-F-C6 H3 NH2.HCl] | NC^3 | 15 × 10^6 (L/mole) | 23 ng/mL | 900 ng/mL | 650 ng/mL
Cl.Cl.N=C(N)c1ccc(CNC(=O)C2CC3CCCCC3N2C(=O)C2NCCC3CCCCC32)cc1 [Example 42, D-1-Piq-cis-Ohi-p-NHCH2 C6 H4 C(NH)NH2.2HCl] | NC2 | 38 × 10^6 (L/mole) | 20 ng/mL | 270 ng/mL | 320 ng/mL
CCS(=O)(=O)N[C@H](Cc1ccccc1)C(=O)N1CCC[C@H]1C(=O)NCCc1ccc(C(=N)N)cc1 [Example 26, EtSO2 -D-Phe-Pro-p-NHCH2 CH2 -C6 H4 C(=NH)NH2.HCl] | NC^1 | – | 37 ng/mL | 870 ng/mL | 750 ng/mL
HOOCCH2 -D-Phe-Pro(4-cis-isoamyl)-p-NHCH2 C6 H4 C(NH)NH2.HCl [Example 50] | – | 40 × 10^6 (L/mole) | 35 ng/mL | 460 ng/mL | 420 ng/mL
Cl.O=C(O)CN[C@H](CC1CCCCC1)C(=O)N1CCC[C@H]1C(=O)NCCC1=CCNCC1 [Example 59, HO2 CCH2 -D-Cha-Pro-4-NHCH2 CH2 -3,4-dehydro-piperidine.HCl] | – | 1.10 × 10^6 (L/mole) | 420 ng/mL | 5,500 ng/mL | 7,000 ng/mL
CCS(=O)(=O)N[C@H](Cc1ccccc1)C(=O)N1[C@H](C(=O)NCc2ccc(C(=N)N)cc2)C[C@@H]2CCCC[C@@H]21 (relative stereo) [Example 45, hydrochloride] | NC^2 | – | 8 ng/mL | 200 ng/mL | 330 ng/mL
CCS(=O)(=O)N[C@H](CC1CCCCC1)C(=O)N1CCC[C@H]1C(=O)NCc1ccc(C(=N)N)cc1 [Example 80, N-(ethylsulfonyl)-D-cyclohexylalanyl-N-[[4-(aminoiminomethyl)phenyl]methyl]-L-prolinamide hydrochloride] | – | 1,700 × 10^6 (L/mole) | 4 ng/mL | 40 ng/mL | 130 ng/mL
N=C(N)N1CCC(CCNC(=O)[C@@H]2CCCN2C(=O)[C@@H](CC2CCCCC2)NCC(=O)O)CC1 [Example 57, HO2 CCH2 -D-Cha-Pro-4-NHCH2 CH2 -1-amidinopiperidine.HCl] | – | 39 × 10^6 (L/mole) | 14 ng/mL | 360 ng/mL | 340 ng/mL
Cl.N=C(N)c1cccc(CNC(=O)[C@@H]2CCCN2C(=O)[C@H](N)Cc2ccccc2)c1 [Example 16, D-Phe-Pro-m-NHCH2 C6 H4 C(NH)NH2.0.75HCl] | – | 0.97 × 10^6 (L/mole) | 650 ng/mL | 8,600 ng/mL | 8,500 ng/mL
N=C(N)c1ccc(CNC(=O)[C@@H]2CCCN2C(=O)[C@H](NCC(=O)O)C2CCCCC2)cc1 [Example 86, N-(carboxymethyl)-D-cyclohexylglycyl-N-[[4-(aminoiminomethyl)phenyl]methyl]-L-prolinamide hydrochloride] | – | 200 × 10^6 (L/mole) | 4 ng/mL | 81 ng/mL | 180 ng/mL
